Assay results as given in patent publication US10464904B2, “Dextrorphan-derivatives with suppressed central nervous activity” (Heinrich-Heine-Universität Düsseldorf, priority 2015, dated 2019).

Assay: Rotarod test, time on rod
Assay type: in vivo, C57BL/6 mice
Settings: mice, 30 minutes after i.p. injection
Method: FIG. 6: Time that C57BL/6 mice stayed on rod 30 minutes after i.p. injection of PBS without (control) or with either 50 μg g^−1 body weight DXO or 100 μg g^−1 body weight compound (4); n=5 male mice each. Significance determined by Student's t-test. *P<0.05. All values are mean±SD.

## CN1CC[C@@]23CCCC[C@@H]2[C@@H]1Cc1ccc(O)cc13 [dextrorphan, (+)-17-methyl-9α,13α,14α-morphinan-3-ol]
  coordination deficits in rotarod test: does
